Source: the NIST ThermoML archive (doi:10.1021/je060271a)
± gives the expanded uncertainty stated by the source.

Conditions: 303.16 K, Liquid, Vibrating tube method

CCCCCC(=O)OCC(COC(=O)CCCCC)(COC(=O)CCCCC)COC(=O)CCCCC [pentaerythritol tetrahexanoate]
Conditions	mass density [kg/m3]
380.8 kPa	988.5 ± 1.2
382.9 kPa	988.7 ± 1.2
385.3 kPa	988.6 ± 1.2
387.4 kPa	988.6 ± 1.2
454.3 kPa	988.6 ± 1.2
457.1 kPa	988.6 ± 1.2
461.3 kPa	988.6 ± 1.2
465.1 kPa	988.6 ± 1.2
468 kPa	988.6 ± 1.2
470.8 kPa	988.7 ± 1.2
474.1 kPa	988.6 ± 1.2
478 kPa	988.6 ± 1.2
481.2 kPa	988.6 ± 1.2
484.7 kPa	988.7 ± 1.2
488.4 kPa	988.7 ± 1.2
491.7 kPa	988.7 ± 1.2
495.5 kPa	988.7 ± 1.2
498.8 kPa	988.7 ± 1.2
502.4 kPa	988.7 ± 1.2
505.6 kPa	988.6 ± 1.2
509.2 kPa	988.8 ± 1.2
513.8 kPa	988.7 ± 1.2
517.4 kPa	988.7 ± 1.2
521.2 kPa	988.6 ± 1.2
525.6 kPa	988.7 ± 1.2
529.6 kPa	988.8 ± 1.2
534.1 kPa	988.7 ± 1.2
537.9 kPa	988.6 ± 1.2
542.3 kPa	988.9 ± 1.2
546.9 kPa	988.7 ± 1.2
550.9 kPa	988.7 ± 1.2
555.3 kPa	988.8 ± 1.2
559.5 kPa	988.8 ± 1.2
564.3 kPa	988.8 ± 1.2
569 kPa	988.8 ± 1.2
574.4 kPa	988.9 ± 1.2
692 kPa	988.8 ± 1.2
698.5 kPa	988.8 ± 1.2
706.1 kPa	988.8 ± 1.2
712.5 kPa	988.8 ± 1.2
719.3 kPa	988.9 ± 1.2
727 kPa	988.7 ± 1.2
734.3 kPa	988.8 ± 1.2
741.2 kPa	988.8 ± 1.2
748.1 kPa	988.8 ± 1.2
756.7 kPa	988.8 ± 1.2
763.8 kPa	988.9 ± 1.2
771.6 kPa	988.9 ± 1.2
779.1 kPa	988.8 ± 1.2
788.5 kPa	988.9 ± 1.2
796.3 kPa	988.8 ± 1.2
804.1 kPa	988.8 ± 1.2
811.9 kPa	988.9 ± 1.2
821.6 kPa	988.9 ± 1.2
829.8 kPa	988.8 ± 1.2
848 kPa	988.8 ± 1.2
856.6 kPa	988.9 ± 1.2
864.9 kPa	989 ± 1.2
1404 kPa	989.4 ± 1.2
1416.2 kPa	989.4 ± 1.2
1431.1 kPa	989.2 ± 1.2
1443.8 kPa	989.3 ± 1.2
1456.5 kPa	989.3 ± 1.2
1642.7 kPa	989.5 ± 1.2
1657.5 kPa	989.4 ± 1.2
1672.3 kPa	989.4 ± 1.2
1686.8 kPa	989.3 ± 1.2
1704.7 kPa	989.4 ± 1.2
1818.6 kPa	989.6 ± 1.2
1834.9 kPa	989.6 ± 1.2
1940.6 kPa	989.6 ± 1.2
1957.6 kPa	989.6 ± 1.2
1975.3 kPa	989.7 ± 1.2
1996.3 kPa	989.5 ± 1.2
2014.2 kPa	989.6 ± 1.2
2035.9 kPa	989.6 ± 1.2
2053.6 kPa	989.7 ± 1.2
2072.3 kPa	989.7 ± 1.2
2129.6 kPa	989.6 ± 1.2
2148.3 kPa	989.7 ± 1.2
2190 kPa	989.9 ± 1.2
2209.4 kPa	989.7 ± 1.2
2272.4 kPa	989.7 ± 1.2
4203.4 kPa	991.1 ± 1.2
4236.8 kPa	991 ± 1.2
4264.7 kPa	991.2 ± 1.2
4292.6 kPa	991.1 ± 1.2
4320.1 kPa	991.1 ± 1.2
4352.9 kPa	991.2 ± 1.2
4379.7 kPa	991.1 ± 1.2
4406.5 kPa	991.2 ± 1.2
4438.4 kPa	991.1 ± 1.2
4464.5 kPa	991.2 ± 1.2
4490.5 kPa	991.3 ± 1.2
4516.1 kPa	991.2 ± 1.2
4546.4 kPa	991.3 ± 1.2
4570.9 kPa	991.3 ± 1.2
4594.9 kPa	991.4 ± 1.2
4622.1 kPa	991.2 ± 1.2
4643.9 kPa	991.3 ± 1.2
4664.2 kPa	991.3 ± 1.2
4683 kPa	991.5 ± 1.2
4704.7 kPa	991.4 ± 1.2
4723 kPa	991.4 ± 1.2
4740.8 kPa	991.3 ± 1.2
4757.6 kPa	991.4 ± 1.2
4774.9 kPa	991.4 ± 1.2
4794.3 kPa	991.6 ± 1.2
4810.9 kPa	991.4 ± 1.2
4827 kPa	991.4 ± 1.2
4842.8 kPa	991.5 ± 1.2
4861.3 kPa	991.4 ± 1.2
4908.5 kPa	991.5 ± 1.2
5374.3 kPa	991.8 ± 1.2
5390.7 kPa	991.8 ± 1.2
5411 kPa	991.8 ± 1.2
5427.2 kPa	991.8 ± 1.2
5447.1 kPa	991.9 ± 1.2
5464.4 kPa	991.8 ± 1.2
5481.4 kPa	991.9 ± 1.2
5498.1 kPa	991.8 ± 1.2
5518.7 kPa	991.9 ± 1.2
5591.9 kPa	992 ± 1.2
5609.7 kPa	992 ± 1.2
5627.2 kPa	991.9 ± 1.2
5647.7 kPa	991.9 ± 1.2
5665.4 kPa	992 ± 1.2
5875.7 kPa	992.1 ± 1.2
5894 kPa	992.1 ± 1.2
5931.3 kPa	992.1 ± 1.2
5953.6 kPa	992.2 ± 1.2
5972 kPa	992.2 ± 1.2
5990.6 kPa	992.2 ± 1.2
6012.9 kPa	992.2 ± 1.2
6031.6 kPa	992.2 ± 1.2
6050.3 kPa	992.2 ± 1.2
6072.9 kPa	992.2 ± 1.2
6111.5 kPa	992.2 ± 1.2
10602 kPa	995.1 ± 1.2
10632 kPa	995.1 ± 1.2
10660 kPa	995.1 ± 1.2
10689 kPa	995 ± 1.2
10724 kPa	995.1 ± 1.2
10753 kPa	995.2 ± 1.2
10782 kPa	995.1 ± 1.2
